Results reported in patent publication US20240293558A1, “KRAS INHIBITOR CONJUGATES” (Erasca, Inc., priority 2021, published 2024).
Where two headings read alike, the source gives them in different places.

Key:
KRAS 4B G12C protein = biological target: T1, KRAS 4B G12C protein (Homo sapiens, UniProt P01116, G12C); assay: In vitro covalent adduct formation (CAF) assay, LC-MS; assay type: binding; details: 5 μM KRAS 4B G12C, 10 μM compound, 22° C.
T1 construct: made in house; host or cells: E. coli BL21
Description: This Example provides a protocol for assessing covalent adduct formation (CAF) between the compounds provided herein and KRAS.
In vitro covalent adduct formation assay: Covalent adduct formation (CAF) reactions between Cys12 of the KRAS 4B G12C protein and embodiments of the application were measured in vitro using liquid chromatography-mass spectrometry (LC-MS).
Recombinant Human KRAS 4B protein containing the G12C mutation was used in compound screening experiments. This protein contained 188 amino acids in total, including an N-terminal 6-Histidine tag, followed by a Tobacco Etch Virus (TEV) tag, followed by residues 1-169 of the native KRAS 4B sequence. The exact mass of the protein was 21,310 Da as determined by mass spectrometry. […]
The recombinant protein was expressed in E. coli BL21 cells and purified using affinity chromatography via a Ni-NTA column. […] The intact mass of the protein samples was measured by LC-MS using a QExactive+mass spectrometer (Thermo Scientific). An amount of 500 ng total protein was injected onto a C8 reverse phase column, eluted with a seven-minute gradient of 30%-90% acetonitrile/0.10% formic acid, and analyzed for intact mass by the mass spectrometer. Adducts identified were confirmed to be within 1 Dalton of the expected mass, and the relative ratios of free:adduct protein were used to quantify the percentage of protein bound by the compound. […]

KRAS G12D [1] = biological target: T2, KRAS G12D (Homo sapiens, UniProt P01116, G12D); assay: Degradation of KRas G12D in AsPC-1 cells, Western blot; assay type: cell-based; design: endogenous in cells; host or cells: AsPC-1 (ATCC CRL-1682); details: for Dmax: ASPC1; for Dmax / DC50: AsPc-1 cell line after 24 h treatment; for KRAS G12D degradation (Western blot), result in words: AsPC-1 cells, FIGS. 1-5
Description: This Example illustrates that the compounds presented herein degrade KRAS G12D.
AsPC-1 cells (ATCC CRL-1682) expressing G12D were grown in RPMI-1640 medium supplemented with 10% fetal bovine serum, and Penicillin/Streptomycin. Cell were plated in 6-well tissue culture plates at a density of 1 million cells/well and allowed to attach for overnight. Diluted compounds were then added in a final concentration of 0.2% DMSO. After 24 hour treatment, the medium was removed, and the plate was washed three times with ice-cold PBS. 50ul of the RIPA cell lysis buffer (ThermoFisher 89901) supplemented with protease inhibitor (Roche 4693116001) and Phosphatase Cocktail A and B inhibitor (Bimake B15002; Bimake Houston TX) was added to each well, the adherent cells were scratched off, and transferred into pre-cold centrifuge tubes. After vigorous vortex, the tubes were incubated on ice for 30 minutes, centrifuged 14,000 rpm for 10 min at 4° C., and the supernatant were transferred into fresh tubes kept on ice. The protein concentration of the supernatant was determined with bicinchoninic acid method (BCA) (ThermoFisher 23227). Samples were prepared to the final concentration of 30ug in 20ul using NuPAGE LDS Sample Buffer (Invitrogen NP0007), NuPAGE Sample Reducing Agent (Invitrogen NP0009), and RIPA cell lysis buffer, and boiled at 95° C. for 15 minutes in water bath.
The levels of KRAS protein and phosphorylated ERK1/2 were determined by Western blotting. 20 μL of protein sample mixture was loaded into each well of 1.5 mm 4-12% Bis-Tris gel (Invitrogen NP0335), and run at 80V in stacking gel and 120 V in separating gel for about 2 h in MOPS running buffer (Invitrogen NP0001). The gel was transferred to the membrane (20V, 7 min) with Invitrogen iBlot2, and blocked with Li-Cor blocking buffer (LI-COR 927-60001; Li-Cor Biotechnology, Lincoln NE) for at least 1 h at room temperature. Primary antibodies diluted in the blocking buffer were added and incubated at 4° C. overnight. As the primary antibodies, KRAS (Proteintech 12063-1-AP), G12D Mutant Specific KRAS (Cell Signaling Technology 14429S), ERKI1/2 (Cell Signaling Technology 4695S), Phospho-ERKI1/2 (Cell Signaling Technology 4370S), and GAPDH (Millipore MAB374) were used. The membrane was washed 4 times with TBST (0.10% Tween20®; ThermoFisher 28360) for 5 minutes at room temperature, then incubated with Li-Cor anti-rabbit-800 (LI-COR 926-68070) and anti-mouse-680 (LI-COR-926-32211) diluted in Li-Cor blocking buffer with the ratio of 1:15,000 to visualize the primary antibodies for 1 hour at room temperature. Then membrane was washed 4 times with TBST (0.1% Tween20) 5 minutes. The signal intensities of bands were quantified by Li-Cor Odyssey CLX.
The KRas and phosphor-ERK1/2 signals were normalized to the GAPDH signal for each lane and percent of DMSO values were calculated to determine the degradation of KRas and the inhibition of ERK1/2 phosphorylation upon the compound treatment.

KRAS G12D [2] = biological target: T2, KRAS G12D; assay: In-vitro RAS-RAF binding assay (RRB), HTRF/FRET; assay type: biochemical; design: Biotinylated KRAS protein amino acids 1-169 (produced at Erasca); made in house; details: read-out: Inhibition of RAS-RAF Binding (in-vitro) KRAS (G12D) IC50
How it was run: (§1)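 Biotinylated KRAS 1-169 (streptavidin-terbium donor, 30 nM) and GST-cRAF RBD (anti-GST d2 acceptor, 30 nM) in HEPES pH 7.5, NaCl, MgCl2, DTT buffer. After compound incubation, SOS1 catalytic domain plus GTPgS drive 60 min nucleotide exchange. HTRF FRET read at equilibrium, in duplicate.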

KRAS (WT) = biological target: T3, KRAS (WT) (Homo sapiens, UniProt P01116); assay: In-vitro RAS-RAF binding assay (RRB), HTRF/FRET; assay type: biochemical; details: read-out: Inhibition of RAS-RAF Binding (in-vitro) KRAS (WT) IC50
T3 construct: Biotinylated KRAS protein amino acids 1-169 (produced at Erasca); made in house
How it was run: as §1

[3] = Table 2, average of multiple runs of each compound

Structure (SMILES)	% CAF at 5 min (KRAS 4B G12C protein) [%]	Dmax (KRAS G12D [1]) [%]	KRAS G12D degradation (Western blot), result in words (KRAS G12D [1])	DC50 (KRAS G12D [1]) [nM]	IC50 (KRAS G12D [2]; Table 1) [nM]	IC50 (KRAS G12D [2]; [3]) [nM]	IC50 (KRAS (WT); Table 1) [nM]	IC50 (KRAS (WT); [3]) [nM]
C=CC(=O)N1CCN(c2nc(OCCN3CCC(COc4cc([C@H](C(=O)N5C[C@H](O)C[C@H]5C(=O)N[C@@H](C)c5ccc(-c6c(F)cccc6F)cc5)C(C)C)on4)CC3)nc3c(F)c(-c4nc(N)cc(C)c4C(F)(F)F)c(Cl)cc23)[C@@H](C)C1 (atropisomer, axis not shown) [Example 200, (2S,4R)-1-((R)-2-(3-((1-(2-((4-((S)-4-acryloyl-2-methylpiperazin-1-yl)-7-((R)-6-amino-4-methyl-3-(trifluoromethyl)pyridin-2-yl)-6-chloro-8-fluoroquinazolin-2-yl)oxy)ethyl)piperidin-4-yl)methoxy)isoxazol-5-yl)-3-methylbutanoyl)-N—((S)-1-(2′,6′-difluoro-[1,1′-biphenyl]-4-yl)ethyl)-4-hydroxypyrrolidine-2-carboxamide]	97							
C=CC(=O)N1CCN(c2nc(OCCN3CCC4(CC3)CN(c3cc([C@H](C(=O)N5C[C@H](O)C[C@H]5C(=O)N[C@@H](C)c5ccc(-c6c(F)cccc6F)cc5)C(C)C)on3)C4)nc3c(F)c(-c4nc(N)cc(C)c4C(F)(F)F)c(Cl)cc23)[C@@H](C)C1 (atropisomer, axis not shown) [Example 201, (2S,4R)-1-((R)-2-(3-(7-(2-(((R)-4-((S)-4-acryloyl-2-methylpiperazin-1-yl)-7-(6-amino-4-methyl-3-(trifluoromethyl)pyridin-2-yl)-6-chloro-8-fluoroquinazolin-2-yl)oxy)ethyl)-2,7-diazaspiro[3.5]nonan-2-yl)isoxazol-5-yl)-3-methylbutanoyl)-N—((S)-1-(2′,6′-difluoro-[1,1′-biphenyl]-4-yl)ethyl)-4-hydroxypyrrolidine-2-carboxamide]	98							
Cc1ncsc1-c1ccc([C@H](C)NC(=O)[C@@H]2C[C@@H](O)CN2C(=O)[C@@H](NC(=O)CCOCCCN2CCC[C@H]2COc2nc(N3CC4CCC(C3)N4)c3cnc(-c4cc(O)cc5cccc(F)c45)c(F)c3n2)C(C)(C)C)cc1 [Example 6, (2S,4R)-1-[(2S)-2-[3-[3-[(2S)-2-[[4-(3,8-diazabicyclo[3.2.1]octan-3-yl)-8-fluoro-7-(8-fluoro-3-hydroxy-1-naphthyl)pyrido[4,3-d]pyrimidin-2-yl]oxymethyl]pyrrolidin-1-yl]propoxy]propanoylamino]-3,3-dimethyl-butanoyl]-4-hydroxy-N-[(1S)-1-[4-(4-methylthiazol-5-yl)phenyl]ethyl]pyrrolidine-2-carboxamide]		95	Favorable results	255	9.5	8.21	126	158
Cc1ncsc1-c1ccc([C@H](C)NC(=O)[C@@H]2C[C@@H](O)CN2C(=O)[C@@H](NC(=O)CCCCN2CCC[C@H]2COc2nc(N3CC4CCC(C3)N4)c3cc(Cl)c(-c4ccc(F)c5sc(N)nc45)c(F)c3n2)C(C)(C)C)cc1 [Example 7, (2S,4R)-1-[(2S)-2-[5-[(2S)-2-[[7-(2-amino-7-fluoro-1,3-benzothiazol-4-yl)-6-chloro-4-(3,8-diazabicyclo[3.2.1]octan-3-yl)-8-fluoro-quinazolin-2-yl]oxymethyl]pyrrolidin-1-yl]pentanoylamino]-3,3-dimethyl-butanoyl]-4-hydroxy-N-[(1S)-1-[4-(4-methylthiazol-5-yl)phenyl]ethyl]pyrrolidine-2-carboxamide]			Favorable results		12	12.4	448	448
Cc1ncsc1-c1ccc([C@H](CO)NC(=O)[C@@H]2C[C@@H](O)CN2C(=O)[C@@H](NC(=O)CCOCCCN2CCC[C@H]2COc2nc(N3CC4CCC(C3)N4)c3cc(Cl)c(-c4ccc(F)c5sc(N)c(C#N)c45)c(F)c3n2)C(C)(C)C)cc1 [Example 9, (2S,4R)-1-[(2S)-2-[3-[3-[(2S)-2-[[7-(2-amino-3-cyano-7-fluoro-benzothiophen-4-yl)-6-chloro-4-(3,8-diazabicyclo[3.2.1]octan-3-yl)-8-fluoro-quinazolin-2-yl]oxymethyl]pyrrolidin-1-yl]propoxy]propanoylamino]-3,3-dimethyl-butanoyl]-4-hydroxy-N-[(1R)-2-hydroxy-1-[4-(4-methylthiazol-5-yl)phenyl]ethyl]pyrrolidine-2-carboxamide]		95	Favorable results	183	13.8	13.8	49.5	49.5
